US20230241046A1, “SOLID DISPERSION OF OPICAPONE” (BIAL - PORTELA & CA, S.A., priority 2020, published 2023)

Assays:
[1] = Fasted state simulated gastric fluid (FaSSGF) kinetic solubility assay; format: physicochemical; conditions: kinetic solubility in FaSSGF, 0-24 h
Procedure: (§1) The content of opicapone in kinetic solubility studies was analysed by HPLC coupled to a UV/Vis detector (Waters series, USA). A C18 column was used. The mobile phase consisted of 0.1% o-phophoric acid and acetonitrile (68:32 v/v).
Kinetic solubility studies on the opicapone solid dispersion were performed at room temperature at a loading equivalent to˜10 mg of opicapone per mL of FaSSGF, in a total of 5 mL of medium. Samples were tested at 0, 0.5, 1, 2, 4 and 24 hours (Klein, AAPS J., 2010, 12, 397-406).
(§2) Area under the Concentration Curve (AUC), Cmax and other pharmacokinetic parameters were calculated using GraphPad Prism 7 for Windows (GraphPad Software, USA).

[2] = Fasted state simulated intestinal fluid (FaSSIF) kinetic solubility assay; format: physicochemical; conditions: kinetic solubility in FaSSIF, 0-24 h
Procedure: as §1
Kinetic solubility studies on the opicapone solid dispersion were performed at room temperature at a loading equivalent to˜75 mg of opicapone per mL of FaSSIF, in a total of 5 mL of medium. Samples were tested at 0, 0.5, 1, 2, 4 and 24 hours (Klein, AAPS J., 2010, 12, 397-406).
as §2

[3] = In vivo pharmacokinetics after oral administration; conditions: male Wistar rats, 3 mg/kg of opicapone, plasma
Procedure: The pharmacokinetics of solid dispersions of amorphous opicapone were evaluated in male Wistar rats, after oral administration of Sample 1, 4 or 6, or a control sample of micronised crystalline opicapone, at a dose of 3 mg/kg of opicapone. The exposure of these solid dispersions, formulated as a HPMC suspensions (50 mg of opicapone per 100 mL of 0.2% HPMC), were compared with the exposure of micronised crystalline opicapone, at a dose of 3 mg/kg of opicapone.
During the studies, blood was collected at different time points, from tail vein, spun at 1500×g in a refrigerated centrifuge (4° C.) for 15 min, and the plasma obtained was stored at −80° C. until further analysis. The plasma samples collected from twenty animals (140 samples), were analysed for opicapone exposure. The bioanalysis involved the use of LC-MS/MS after plasma precipitation.

[4] = Particle size distribution (circle equivalent diameter) by SEM; format: physicochemical; conditions: particle size distribution (equivalent circular diameter) after micronisation, MC JETMILL 200
Procedure: A Phenom Pro-X Electron microscope (PhenomWorld, Thermo Fisher Scientific, USA) equipped with a CeB6 electron source and backscatter electron detector was used to determine the morphology and particle size of the samples.
The powder was placed on conductive adhesive tape. The holder for non-conductive samples was used. The excess of sample (loosely bound to the tape) was removed using compressed air.
Particle morphology was assessed by Automated Image Mapping software and particle size determination was made by Particlemetric software.

AUC ([1]; Experiment 1): 7.625 µg·h/mL | Cmax ([1]; Experiment 1): 300 ng/mL | AUC ([1]; Experiment 2): 5.75 µg·h/mL | Cmax ([1]; Experiment 2): 300 ng/mL | tmax ([1]; Experiment 2): 24 h | AUC ([1]; Experiment 3): 5.86 µg·h/mL | Cmax ([1]; Experiment 3): 260 ng/mL | tmax ([1]; Experiment 3): 24 h | tmax ([2]; room temperature, Experiment 1): 24 h | AUC ([2]; Experiment 1): 1589 µg·h/mL | Cmax ([2]; Experiment 1): 69000 ng/mL | AUC ([2]; Experiment 2): 1310 µg·h/mL | Cmax ([2]; Experiment 2): 86000 ng/mL | tmax ([2]; Experiment 2): 2 h | AUC ([2]; Experiment 3): 1400 µg·h/mL | Cmax ([2]; Experiment 3): 89000 ng/mL | tlast [3]: 8 h | AUC(0-t) ([3]; rat): 1.4 µg·h/mL | Cmax ([3]; rat): 379 ng/mL | tmax ([3]; rat): 2 h | concentration at 8 h ([3]; rat, read-out: Clast): 78.6 ng/mL | D10 [4]: ≥ 4 μm | D50 [4]: 10-40 μm | D95 [4]: ≤ 80 μm
Structure (SMILES): Cc1c(Cl)c(C)[n+]([O-])c(Cl)c1-c1noc(-c2cc(O)c(O)c([N+](=O)[O-])c2)n1 [Opicapone Control, opicapone]
